Assay [1] relates to larvae of the mustard beetle (Phaedon cochleariae). As to the kind of experiment: Phaedon larvae test. In kind it is in vivo. The conditions noted are these: 100 ppm, cabbage leaves dipped. As to the method: (§1) To produce a suitable preparation of active compound, 1 part by weight of active compound is mixed with the stated amounts of solvent and emulsifier, and the concentrate is diluted with emulsifier-containing water to the desired concentration.
Cabbage leaves (Brassica oleracea) are treated by being dipped into the preparation of active compound of the desired concentration and are populated with larvae of the mustard beetle (Phaedon cochleariae) while the leaves are still moist.
After the desired period of time, the kill in % is determined. 100% means that all beetle larvae have been killed; 0% means that none of the beetle larvae have been killed. The kill rates determined are calculated using the Colby formula (see page 32).

Assay [2] has as its system caterpillars of the army worm (Spodoptera frugiperda). As to the kind of experiment: Spodoptera frugiperda test. In kind it is in vivo. The following applies: 100 ppm, cabbage leaves dipped. As to the method:
as §1
Cabbage leaves (Brassica oleracea) are treated by being dipped into the preparation of active compound of the desired concentration and are populated with caterpillars of the army worm (Spodoptera frugiperda) while the leaves are still moist.
After the desired period of time, the kill in % is determined. 100% means that all caterpillars have been killed; 0% means that none of the caterpillars have been killed. The kill rates determined are calculated using the Colby formula (see page 32).

The structures appear in SMILES notation.

On to `Cc1cc(C)c(C2=C(OC(=O)CC(C)(C)C)C3(CCCC3)OC2=O)c(C)c1` [Compound (I-b-1)], for which the results for the “Kill rate in % after 6 d” value in assay [1] and in assay [2] were 30% and 5%, respectively.

The record behind these values is patent US7795303B2, “Active agents combination exhibiting insecticidal and acaricide properties” (Bayer CropScience AG, priority 2003, dated 2010).
